Molecules are shown by their SMILES. Entries after “also recorded” stand apart in the source; their conditions may differ.

Here are results for three molecules from patent US9868715B2 (THE BOARD OF REGENTS OF THE UNIVERSITY OF TEXAS SYSTEMS, priority 2014, dated 2018).

For assay [1], the system named is transformed PSC (human pancreatic stellate cells). The experiment in a line: PSC proliferation, AlamarBlue Cell Viability Assay. It is filed as cell-based. Particulars: for inhibition at 5 µM / inhibition at 10 µM / inhibition at 20 µM: Homo sapiens, mean of at least three independent experiments, NE = No effect, read-out: Inhibitory Effect (%) on PSC proliferation; for IC50: human PSC, 24 h, mean±SEM of at least three experiments, read-out: IC50, inhibition of PSC proliferation; for IC50 / Antiproliferative effect on PSC, result in words: AlamarBlue; for Antiproliferative effect on PSC, result in words: transformed PSC. How it is done: The calculated lipophilicity (cLogP) and topological polar surface area (tPSA) values of synthesized analogues are listed in Table 1. […] AlamarBlue is a non-toxic reagent that is converted to a highly fluorescent end product by viable cells.
Under an IRB-approved tissue protocol, discarded human resected pancreatic tissue (500 mm^3) was attained fresh from the operating room at the University of Texas Medical Branch. The tissue was minced and plated on a collagen-coated flask (15 μg/mL, Invitrogen) with DMEM (VWR; Radnor, Pa.) supplemented with penicillin 200 U/mL, streptomycin 200 μg/mL, amphotericin B 0.25 μg/mL and gentimicin 50 μg/mL (Invitrogen, Carlsbad Calif.), 10% fetal bovine serum (Lonza, Walkersville, Md.), 1% insulin-transferrin, selenium-ethanolamine (Gibco, Grand Island, N.Y.), and 1% non-essential amino acids (Sigma-Aldrich, St. Louis, Mo.). The human PSC were isolated by the outgrowth method.^41-43 The purity of PSC culture was confirmed by immunohistochemical staining for vimentin, α-smooth muscle actin, glial fibrillar acidic protein, or Oil red O staining. Primary PSC were transformed and immortalized for use in experiments using lentiviral vectors containing SV40 Large T antigen and human telomerase (plasmid #12245 and 12246; Addgene, Cambridge, Mass.). Cultures were maintained in DMEM with 10% FBS, at 37° C. in a humidified 95% O2/5% CO2 atmosphere.
Cell proliferation assay. Transformed PSC (3×10^3) were plated in 96-well plates, in sextuplicate. […] AlamarBlue reagent (10% sample volume, DAL1025) was added to each well per Invitrogen's protocol. Fluorescence was recorded using excitation/emission wavelengths of 544/590 nm and the SpectraMax M2 Microplate Reader (Molecular Devices, Sunnyvale Calif.).
Statistical analysis. Dose-response curves were generated by plotting fluorescence or absorbance versus log (compound concentration). A best-fit curve was created using nonlinear regression, and the IC50 or EC50 determined from the graph (GraphPad Prism 5; GraphPad Software Inc., La Jolla, Calif.). To analyze continuos variables, unpaired student t-tests and one-way ANOVA with Tukey-Kramer multiple comparisons post-test (GraphPad Prism 5). Significance was set at p<0.05.

For assay [2], the system named is C57BL/6 mice with cerulein-induced CP. The experiment in a line: Chronic pancreatitis (CP) animal model, fibronectin IHC. Particulars: 0.5 mg/kg daily oral gavage, 3 weeks. The assay is classed as in vivo. As to the method:
In order to evaluate the anti-fibrotic effect of these new compounds as a proof-of-concept, the compounds were tested in a preclinical animal model of CP. CP was induced in mice using the well-established model of repeated cerulean (CR) injections (Lerch and Gorelick 2013, Gastroenterology 144:1180; Aghdassi et al. 2011, Fibrogenesis Tissue Repair 4:26). […] After four weeks, the pancreata were processed and stained for fibronectin, which is a major component of the ECM. […] ImageJ analysis of the slides quantified the significant decrease in fibrosis (p<0.001) (FIG. 4E).
Chronic pancreatitis (CP) animal model. Animal experiments were conducted under an Institutional Animal Care and Use Committee-approved protocol. CP was induced in C57BL/6 mice using supraoptimal pancreatic stimulation with cerulein (CR), a cholecystokinin analogue (Bachem, Torrance, Calif.). CP (50 μg CR/kg mouse weight) was administered via intraperitoneal route hourly for 5 h for 3 d/week for a total of 4 weeks. Control mice received phosphate buffered saline (PBS) injections following the same schedule. […] At the end of Week 4, the mice were anesthestized with isoflurane and sacrificed per protocol. The pancreata were quickly harvested and processed.
Immunohistochemistry (IHC) and image analysis. Pancreata were formalin-fixed and paraffin-embedded. Prior to staining, sections (5 μm) were deparaffinized with xylene, dehydrated with ethanol, and subjected to heat-mediated antigen retrieval (DAKO, Carpinteria, Calif.) to optimize antigen immunoreactivity. Fibronectin antibody (1:600; Santa Cruz Biotechnology, Dallas, Tex.), and biotinylated anti-goat IgG (1:400; Vector Laboratories Inc., Burlingame, Calif.) were used. […] The percent area of brown fibronectin staining was quantified using the Image Processing and Analysis in Java (ImageJ) 1.46r software (NIH, Bethesda, Md.) and a color deconvolution plug-in (Ruifrok and Johnston, Anal Quant Cytol Histol 2001, 23:291; Schneider et al., Nat Methods 2012, 9:671).

For the molecule `COc1cc(OC)c2c(=O)cc(-c3ccc(OCC4CO4)cc3)oc2c1` (centres unmarked) [Compound 23, 5,7-Dimethoxy-2-(4-oxiranylmethoxyphenyl)-chromen-4-one], in assay [1], the inhibition at 5 µM is 69%, the inhibition at 10 µM amounted to 89%, the inhibition at 20 µM came to 93% and the IC50 turned out to be 2.5 ± 0.6 µM. In assay [1], the “Antiproliferative effect on PSC, result in words” value is reported as “highly potent inhibitor suppressing PSC proliferation”. Besides, the “Pancreatic fibrosis in CP model (fibronectin stain), result in words” value (shortened to “Pancreatic fibrosis in CP model”) in assay [2] is “as efficacious as apigenin in reducing pancreatic fibrosis; also recorded: significantly decreased the stromal fibrosis of CP; also recorded: significantly reduced the fibrotic response; also recorded: significant efficacy to reduce pancreatic fibrosis”.
For the molecule `O=c1cc(-c2ccc(O)cc2)oc2cc(O)cc(O)c12` [Apigenin, 4′,5,7-trihydroxyflavone, reference compound], in assay [1], the inhibition at 5 µM was 11%, the inhibition at 10 µM was found to be 34%, the inhibition at 20 µM stood at 64% and the IC50 was found to be 18.6 ± 1.6 µM. For the same molecule, in assay [2], the “Pancreatic fibrosis in CP model” value is reported as “significantly decreased the stromal fibrosis of CP; also recorded: significantly reduced the fibrotic response; also recorded: significant efficacy to reduce pancreatic fibrosis”.
In the case of `COc1cc(OC)c2c(=O)cc(-c3ccc(OCC(O)CN4CCCCC4)cc3)oc2c1` (centres unmarked) [Compound 24, 2-(4-(2-Hydroxy-3-piperidin-1-yl-propoxy)phenyl)-5,7-dimethoxy-chromen-4-one], in assay [1], the inhibition at 5 µM came to 34%, the inhibition at 10 µM was 65%, the inhibition at 20 µM stood at 95% and the IC50 is 8 ± 1.8 µM. Further, the “Antiproliferative effect on PSC, result in words” value in assay [1] was “potent antiproliferative effects”. For the same molecule, in assay [2], the “Pancreatic fibrosis in CP model” value is on record as “as efficacious as apigenin in reducing pancreatic fibrosis; also recorded: significantly decreased the stromal fibrosis of CP; also recorded: significantly reduced the fibrotic response; also recorded: significant efficacy to reduce pancreatic fibrosis”.
